Results: publication PMC9858427, “Design, synthesis and biological evaluation of 2-((4-sulfamoylphenyl)amino)-pyrrolo[2,3-d]pyrimidine derivatives as CDK inhibitors” (Journal of Enzyme Inhibition and Medicinal Chemistry, 2023)
Blank lines part the entries; values can stand above or below the molecule they belong to.

What was measured:
[1] = Body weight and H&E pathology of main organs in xenograft mice; format: in vivo, BALB/C nude mice; conditions: after 3-week treatment
Procedure: AsPC-1 (5 × 10^7) cells were injected subcutaneously into 5-week-old female BALB/C nude mice (Beijing Huafukang Bioscience CO. Inc, Beijing, China). After two weeks, mice were omogenizamised and treated with vehicle, gemcitabine (GCTB), or test compound. Blank solvent and test compound was administered by oral gavage (10 ml/kg) with once daily of five days and followed by 2 days off in each week, GCTB was given once a week by 50 mg/kg intraperitoneal injection. Mice were inspected daily for clinical signs, both tumour diameters and body weight were determined 3 times weekly. Tumour volumes were calculated according to the formula “tumor volume (V) = length × width^2/2”. Median TGI values were calculated as follows: TGI = 100 × [1-(Vtreated group at day20-Vtreated group at day1)/(Vvehicle group at day20-Vvehicle group at day1)]. Data were plotted as average with SD in the graphical representation of tumour growth. The p values obtained from the two-way ANOVA analysis. Meanwhile, main organs of mice were collected, formalin-fixed and paraffin-embedded for pathological analysis by H&E dyeing. For drug concentration determination, blood and tumour tissues were collected at indicated time after single administration. Standard curve of test compound was established in the acquisition mode of SIM using a SHIMADZU LC-MS instrument. Blood kept in anticoagulant tube coated with heparin sodium was centrifuged to provide the supernatant, which was followed by added with 3-fold acetonitrile to precipitate plasma protein. After centrifugation at 10 × 10^3 for 5 min, the supernatant was injected directedly into LC-MS instrument for quantification of drug concentration. As for tumour tissues, omogenizationation (Precellys Evolution) was done after weighed accurately and added with 3-fold saline. After centrifugation under same condition as plasma samples, supernatant was separated and injected into LC-MS for quantification.

PANC-1 = experiment: MTT proliferation assay in PANC-1 cells; format: cell-based; conditions: Homo sapiens, 72 h drug exposure
Procedure: (§1) The human pancreatic carcinoma MIA PaCa-2 was purchased from China Centre for Type Culture Collection, AsPC-1 and BxPC-3 cell Lines were purchased from Cell Centre of the Institute of Basic Medical Sciences, Chinese Academy of Medical Sciences and Peking Union Medical College. PANC-1 was kindly provided by Nankai Hospital (Tianjin, China). These cancer cell lines were cultured according to the manufacturer’s instruction.
(§2) Cells were planted in 96-well plates at a density of 3000–4000 cells per well and incubated at 37 °C in a humidified CO2 incubator for 24 h. Then 3-fold diluted concentrations of tested compound were added respectively which was dissolved by DMSO in the ratio of 1:1000. After indicated incubation period, MTT was added to each well and incubated for 4 h at 37 °C. Then, the supernatant was discarded gently, and the precipitate was dissolved in 100 µL of DMSO in each well. The absorbance (A) at 570 nm was detected with a microplate reader (Multiskan MK3; Thermo Fisher Scientific, MA, USA). Vehicle-treated cells were served as the control for the calculation of relative cell viability (%) of treated group at single concentration. IC50 value was calculated directly from the inhibition curve of serial dilution of test compound and was expressed as mean ± SD using the SPSS statistical software (SPSS17.0 Inc., Chicago, IL, USA).

MIA PaCa-2 cells [2] = experiment: MTT proliferation assay in MIA PaCa-2 cells; format: cell-based, human; conditions: Homo sapiens, MIA PaCa-2, 72 h, 72 h drug exposure
Procedure: as §1
as §2, with “Then” for “Cells were planted in 96-well plates at a density of 3000–4000 cells per well and incubated at 37 °C in a humidified CO2 incubator for 24 h. Then”

[3] = tested on: AsPC-1 cell-derived xenograft; experiment: AsPC-1 cell-derived xenograft mice model, in vivo efficacy; design: species or system BALB/C nude mice; conditions: GCTB 50 mg/kg intraperitoneal once a week, 3 weeks; vs vehicle group
Procedure: Synthetic compound was administered as a suspension or solution in the saline with 5% DMSO and 5% Solutol. GCTB was dissolved in saline. All of the experiments were approved by the Institutional Animal Care and Use Committee of Institute of Medicinal Biotechnology. All experiments were carried out under ethics committee–approved protocols and in compliance with the guidelines for the care of laboratory animals of Institute of Medicinal Biotechnology, CAMS.
AsPC-1 (5 × 10^7) cells were injected subcutaneously into 5-week-old female BALB/C nude mice (Beijing Huafukang Bioscience CO. Inc, Beijing, China). After two weeks, mice were omogenizamised and treated with vehicle, gemcitabine (GCTB), or test compound. Blank solvent and test compound was administered by oral gavage (10 ml/kg) with once daily of five days and followed by 2 days off in each week, GCTB was given once a week by 50 mg/kg intraperitoneal injection. Mice were inspected daily for clinical signs, both tumour diameters and body weight were determined 3 times weekly. Tumour volumes were calculated according to the formula “tumor volume (V) = length × width^2/2”. Median TGI values were calculated as follows: TGI = 100 × [1-(Vtreated group at day20-Vtreated group at day1)/(Vvehicle group at day20-Vvehicle group at day1)]. Data were plotted as average with SD in the graphical representation of tumour growth. The p values obtained from the two-way ANOVA analysis. Meanwhile, main organs of mice were collected, formalin-fixed and paraffin-embedded for pathological analysis by H&E dyeing. For drug concentration determination, blood and tumour tissues were collected at indicated time after single administration. Standard curve of test compound was established in the acquisition mode of SIM using a SHIMADZU LC-MS instrument. […] After centrifugation at 10 × 10^3 for 5 min, the supernatant was injected directedly into LC-MS instrument for quantification of drug concentration. […] After centrifugation under same condition as plasma samples, supernatant was separated and injected into LC-MS for quantification.

BxPC-3 = experiment: MTT proliferation assay in BxPC-3 cells; format: cell-based; conditions: Homo sapiens, 72 h drug exposure
Procedure: as §1, §2

AsPC-1 = experiment: MTT proliferation assay in AsPC-1 cells; format: cell-based; conditions: Homo sapiens, ASPC1; 72 h drug exposure
Procedure: as §1, §2

CDK2 [4] = target: T1, CDK2 (Homo sapiens, UniProt P24941); experiment: CDK kinase screening at 1 μM, CDK2; format: biochemical; conditions: read-out: Inhibitory rate at 1μM: CDK2
Procedure: (§3) CDK kinase activity (IC50 values and inhibitory rate at single concentration) was measured using the kinase profiling services (Shanghai ChemPartner Co., Ltd). Compounds were sent to ChemPartner as a solution in DMSO at concentration of 10 mM.

CDK2 [5] = target: T1, CDK2; experiment: CDK2 kinase IC50, Mobility shift assay; format: biochemical
Procedure: as §3

CDK4 [6] = target: T2, CDK4 (Homo sapiens, UniProt P11802); experiment: CDK4 kinase IC50, Mobility shift assay; format: biochemical
T2 sequence (P11802 whole entry): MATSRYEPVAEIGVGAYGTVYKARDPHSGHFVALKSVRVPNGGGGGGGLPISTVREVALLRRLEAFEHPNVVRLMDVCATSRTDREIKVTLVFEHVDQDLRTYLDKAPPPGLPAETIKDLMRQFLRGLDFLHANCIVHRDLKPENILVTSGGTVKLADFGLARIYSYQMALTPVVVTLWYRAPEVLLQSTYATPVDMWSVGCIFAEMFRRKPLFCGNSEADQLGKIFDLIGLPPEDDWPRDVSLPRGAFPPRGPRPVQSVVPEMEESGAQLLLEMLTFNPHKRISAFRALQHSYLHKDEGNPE
T2 sequence (P30281 whole entry partner): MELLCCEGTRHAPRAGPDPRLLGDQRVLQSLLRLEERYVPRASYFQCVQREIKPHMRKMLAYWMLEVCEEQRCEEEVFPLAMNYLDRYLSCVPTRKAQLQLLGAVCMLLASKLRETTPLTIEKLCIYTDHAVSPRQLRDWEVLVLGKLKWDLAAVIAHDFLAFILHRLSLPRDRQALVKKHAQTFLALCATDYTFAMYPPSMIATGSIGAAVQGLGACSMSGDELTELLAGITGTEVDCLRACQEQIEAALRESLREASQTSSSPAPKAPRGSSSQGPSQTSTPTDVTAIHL
Procedure: as §3

CDK5 = CDK5 (Homo sapiens, UniProt Q00535); experiment: CDK kinase screening at 1 μM, CDK5; format: biochemical; conditions: read-out: Inhibitory rate at 1μM: CDK5
Procedure: as §3

CDK8 = CDK8 (Homo sapiens, UniProt P49336); experiment: CDK kinase screening at 1 μM, CDK8; format: biochemical; conditions: read-out: Inhibitory rate at 1μM: CDK8
CDK8, sequence (P49336 whole entry): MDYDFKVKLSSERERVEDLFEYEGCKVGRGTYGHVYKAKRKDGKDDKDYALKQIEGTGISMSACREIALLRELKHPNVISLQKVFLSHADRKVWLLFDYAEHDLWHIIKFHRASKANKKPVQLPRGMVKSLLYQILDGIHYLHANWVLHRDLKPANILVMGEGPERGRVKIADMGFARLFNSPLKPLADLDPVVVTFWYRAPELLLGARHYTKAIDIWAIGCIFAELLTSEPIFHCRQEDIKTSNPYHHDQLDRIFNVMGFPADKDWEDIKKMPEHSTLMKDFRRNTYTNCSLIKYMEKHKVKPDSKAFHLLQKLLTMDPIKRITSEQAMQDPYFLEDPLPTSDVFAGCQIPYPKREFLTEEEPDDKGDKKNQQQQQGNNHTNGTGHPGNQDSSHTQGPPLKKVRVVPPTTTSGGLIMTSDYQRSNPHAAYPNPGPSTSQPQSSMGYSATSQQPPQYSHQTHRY
CDK8, sequence (P24863 whole entry partner): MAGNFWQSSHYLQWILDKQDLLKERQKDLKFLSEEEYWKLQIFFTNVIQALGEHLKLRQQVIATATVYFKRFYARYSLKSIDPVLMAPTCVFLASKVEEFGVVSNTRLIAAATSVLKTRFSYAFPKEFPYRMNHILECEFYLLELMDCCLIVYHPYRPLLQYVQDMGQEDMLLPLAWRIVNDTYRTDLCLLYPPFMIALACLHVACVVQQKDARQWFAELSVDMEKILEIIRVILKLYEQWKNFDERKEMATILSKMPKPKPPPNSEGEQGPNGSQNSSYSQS
Procedure: as §3

CDK9 [7] = target: T3, CDK9 (Homo sapiens, UniProt P50750); experiment: CDK kinase screening at 1 μM, CDK9; format: biochemical; conditions: read-out: Inhibitory rate at 1μM: CDK9
T3 sequence (P50750 whole entry): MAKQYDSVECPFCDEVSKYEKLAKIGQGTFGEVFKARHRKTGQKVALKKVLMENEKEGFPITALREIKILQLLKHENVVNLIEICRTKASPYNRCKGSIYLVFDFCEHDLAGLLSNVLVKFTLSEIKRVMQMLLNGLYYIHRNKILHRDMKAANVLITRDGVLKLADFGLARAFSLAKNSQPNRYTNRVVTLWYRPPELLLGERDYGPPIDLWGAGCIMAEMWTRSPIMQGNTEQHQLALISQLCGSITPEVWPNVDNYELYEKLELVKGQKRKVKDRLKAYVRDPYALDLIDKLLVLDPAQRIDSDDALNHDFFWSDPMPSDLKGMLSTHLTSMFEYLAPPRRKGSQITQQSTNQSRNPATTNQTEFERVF
T3 sequence (O60563 whole entry partner): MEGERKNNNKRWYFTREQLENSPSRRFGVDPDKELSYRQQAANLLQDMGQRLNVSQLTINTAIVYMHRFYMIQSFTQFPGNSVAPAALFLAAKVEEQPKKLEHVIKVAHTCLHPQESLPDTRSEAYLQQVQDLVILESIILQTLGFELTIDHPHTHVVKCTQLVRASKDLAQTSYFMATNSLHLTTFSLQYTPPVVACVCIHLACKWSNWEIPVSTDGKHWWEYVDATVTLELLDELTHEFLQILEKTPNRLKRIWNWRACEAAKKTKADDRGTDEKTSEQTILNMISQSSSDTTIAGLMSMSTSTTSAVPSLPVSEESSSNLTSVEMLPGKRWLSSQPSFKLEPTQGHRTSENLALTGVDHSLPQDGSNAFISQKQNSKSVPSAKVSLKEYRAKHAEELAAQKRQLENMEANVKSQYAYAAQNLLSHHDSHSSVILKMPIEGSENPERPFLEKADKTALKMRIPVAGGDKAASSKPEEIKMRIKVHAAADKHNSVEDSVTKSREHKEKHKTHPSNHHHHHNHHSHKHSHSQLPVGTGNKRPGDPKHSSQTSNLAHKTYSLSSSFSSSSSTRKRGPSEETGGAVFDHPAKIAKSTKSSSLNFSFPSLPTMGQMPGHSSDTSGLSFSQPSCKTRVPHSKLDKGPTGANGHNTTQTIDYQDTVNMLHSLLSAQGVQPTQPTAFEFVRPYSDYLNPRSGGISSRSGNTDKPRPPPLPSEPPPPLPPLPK
Procedure: as §3

CDK1 [8] = target: T4, CDK1 (Homo sapiens, UniProt P06493); experiment: CDK1 kinase IC50, Mobility shift assay; format: biochemical
T4 sequence (P06493 whole entry): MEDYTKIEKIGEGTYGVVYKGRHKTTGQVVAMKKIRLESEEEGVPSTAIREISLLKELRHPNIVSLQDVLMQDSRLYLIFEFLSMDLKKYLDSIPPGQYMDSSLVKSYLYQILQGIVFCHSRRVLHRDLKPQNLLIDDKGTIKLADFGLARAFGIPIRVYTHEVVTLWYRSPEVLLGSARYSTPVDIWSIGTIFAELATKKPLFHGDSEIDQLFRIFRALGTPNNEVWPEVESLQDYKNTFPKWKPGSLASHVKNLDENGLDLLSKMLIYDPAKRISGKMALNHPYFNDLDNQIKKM
T4 sequence (P14635 whole entry partner): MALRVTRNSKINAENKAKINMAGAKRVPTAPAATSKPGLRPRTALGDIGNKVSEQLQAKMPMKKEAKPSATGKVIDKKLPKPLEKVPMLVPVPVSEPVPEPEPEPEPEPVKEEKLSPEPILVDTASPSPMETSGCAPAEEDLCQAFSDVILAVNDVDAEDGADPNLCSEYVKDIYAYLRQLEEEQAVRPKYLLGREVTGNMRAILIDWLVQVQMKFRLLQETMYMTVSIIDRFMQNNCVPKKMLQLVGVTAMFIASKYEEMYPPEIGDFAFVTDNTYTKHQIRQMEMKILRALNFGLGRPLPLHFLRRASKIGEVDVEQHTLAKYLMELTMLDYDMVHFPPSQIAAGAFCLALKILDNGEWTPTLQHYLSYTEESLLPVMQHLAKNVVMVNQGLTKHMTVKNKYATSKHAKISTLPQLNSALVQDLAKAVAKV
Procedure: as §3

CDK7 [9] = target: T5, CDK7 (Homo sapiens, UniProt P50613); experiment: CDK kinase screening at 1 μM, CDK7; format: biochemical; conditions: read-out: Inhibitory rate at 1μM: CDK7
T5 sequence (P50613 whole entry): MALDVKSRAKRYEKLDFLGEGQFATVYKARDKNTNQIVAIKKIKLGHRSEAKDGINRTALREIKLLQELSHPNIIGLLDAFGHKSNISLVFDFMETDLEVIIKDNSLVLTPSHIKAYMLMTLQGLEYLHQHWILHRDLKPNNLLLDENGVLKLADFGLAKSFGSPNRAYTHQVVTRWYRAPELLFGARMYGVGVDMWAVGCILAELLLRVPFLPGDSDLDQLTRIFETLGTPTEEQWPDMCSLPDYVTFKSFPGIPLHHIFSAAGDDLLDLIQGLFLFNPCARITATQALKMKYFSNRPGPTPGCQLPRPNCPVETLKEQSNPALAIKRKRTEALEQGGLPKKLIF
T5 sequence (P51946 whole entry partner): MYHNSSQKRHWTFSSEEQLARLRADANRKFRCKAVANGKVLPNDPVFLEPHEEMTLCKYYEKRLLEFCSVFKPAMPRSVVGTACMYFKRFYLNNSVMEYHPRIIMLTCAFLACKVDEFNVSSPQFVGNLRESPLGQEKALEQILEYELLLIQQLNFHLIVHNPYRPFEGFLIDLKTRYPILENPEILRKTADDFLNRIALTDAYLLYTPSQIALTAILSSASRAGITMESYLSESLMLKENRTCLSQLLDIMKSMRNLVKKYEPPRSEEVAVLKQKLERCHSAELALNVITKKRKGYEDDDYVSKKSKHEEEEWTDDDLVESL
T5 sequence (P51948 whole entry partner): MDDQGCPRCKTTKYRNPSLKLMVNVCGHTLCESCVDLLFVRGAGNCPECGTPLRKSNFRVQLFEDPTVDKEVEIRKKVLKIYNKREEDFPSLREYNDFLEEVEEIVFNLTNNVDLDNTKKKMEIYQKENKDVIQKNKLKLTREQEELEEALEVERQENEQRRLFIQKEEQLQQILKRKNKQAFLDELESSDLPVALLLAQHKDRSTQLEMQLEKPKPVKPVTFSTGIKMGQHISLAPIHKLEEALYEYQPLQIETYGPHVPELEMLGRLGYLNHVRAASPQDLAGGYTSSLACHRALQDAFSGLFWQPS
Procedure: as §3

CDK7 [10] = target: T5, CDK7; experiment: CDK7 kinase IC50, Mobility shift assay; format: biochemical
Procedure: as §3

CDK3 = CDK3 (Homo sapiens, UniProt Q00526); experiment: CDK kinase screening at 1 μM, CDK3; format: biochemical; conditions: read-out: Inhibitory rate at 1μM: CDK3
Procedure: as §3

CDK1 [11] = target: T4, CDK1; experiment: CDK kinase screening at 1 μM, CDK1; format: biochemical; conditions: read-out: Inhibitory rate at 1μM: CDK1
Procedure: as §3

CDK4 [12] = target: T2, CDK4; experiment: CDK kinase screening at 1 μM, CDK4; format: biochemical; conditions: read-out: Inhibitory rate at 1μM: CDK4
Procedure: as §3

CDK9/cyclinT1 = CDK9/cyclinT1 (Homo sapiens, UniProt P50750); experiment: CDK9/cyclinT1 Lance Ultra Assay, single concentration screen; format: biochemical; conditions: 50 nM, ATP concentration at Km, read-out: CDK9 inhibitory rate (%) @ 50nM
CDK9/cyclinT1, sequence (P50750 whole entry): as the sequence (P50750 whole entry) above
CDK9/cyclinT1, sequence (O60563 whole entry partner): as the sequence (O60563 whole entry partner) above
Procedure: as §3

CDK6 = CDK6 (Homo sapiens, UniProt Q00534); experiment: CDK kinase screening at 1 μM, CDK6; format: biochemical; conditions: read-out: Inhibitory rate at 1μM: CDK6
CDK6, sequence (Q00534 whole entry): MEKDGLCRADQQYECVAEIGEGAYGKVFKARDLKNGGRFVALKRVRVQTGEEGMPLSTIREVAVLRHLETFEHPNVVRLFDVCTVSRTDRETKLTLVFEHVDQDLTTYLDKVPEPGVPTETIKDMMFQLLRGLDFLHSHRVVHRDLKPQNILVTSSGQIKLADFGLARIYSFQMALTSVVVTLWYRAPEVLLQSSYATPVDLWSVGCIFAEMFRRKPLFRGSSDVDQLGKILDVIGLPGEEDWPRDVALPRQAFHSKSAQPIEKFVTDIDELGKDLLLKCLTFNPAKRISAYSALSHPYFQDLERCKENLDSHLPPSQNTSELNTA
CDK6, sequence (P30281 whole entry partner): as the sequence (P30281 whole entry partner) above
Procedure: as §3

CDK9 [13] = target: T3, CDK9; experiment: CDK9 kinase IC50, Mobility shift assay; format: biochemical
Procedure: as §3

MIA PaCa-2 cells [14] = tested on: MIA PaCa-2 cells; design: method as in PMID 33316409; conditions: previous study ref 23; cited from earlier work

IC50 (PANC-1): 5.79 ± 4.21 µM
IC50 (MIA PaCa-2 cells [2]): 1.04 ± 0.27 µM
IC50 (BxPC-3): 0.388 ± 0.119 µM
IC50 (AsPC-1): 0.956 ± 0.14 µM
Structure (SMILES): Nc1ccn([C@@H]2O[C@H](CO)[C@@H](O)C2(F)F)c(=O)n1 [GCTB, gemcitabine, reference compound]
pathological change in main organs (H&E) [1]: no obvious pathological change
tumour growth inhibition (TGI) [3]: 36%

inhibition at 1 µM (CDK2 [4]): 94.4%
IC50 (CDK2 [5]): 91.6 nM
IC50 (PANC-1): 3.68 ± 2.5 µM
IC50 (CDK4 [6]): 89 nM
inhibition at 1 µM (CDK5): 72.1%
inhibition at 1 µM (CDK8): 0.8%
inhibition at 1 µM (CDK9 [7]): 99%
IC50 (CDK1 [8]): 516 nM
inhibition at 1 µM (CDK7 [9]): 5.3%
IC50 (CDK7 [10]): > 10000 nM
inhibition at 1 µM (CDK3): 84.5%
inhibition at 1 µM (CDK1 [11]): 65.2%
inhibition at 1 µM (CDK4 [12]): 89.2%
inhibition at 0.05 µM (CDK9/cyclinT1): 98.6%
inhibition at 1 µM (CDK6): 78.1%
IC50 (CDK9 [13]): 5.6 nM
IC50 (MIA PaCa-2 cells [2]): 4.98 ± 2.68 µM
IC50 (BxPC-3): 0.409 ± 0.06 µM
IC50 (AsPC-1): 2.6 ± 0.997 µM
Structure (SMILES): Cc1cc(C)nc(NS(=O)(=O)c2ccc(Nc3ncc4cc(C(=O)N(C)C)n(C5CCCC5)c4n3)cc2)n1 [compound 1]
effect on cell cycle (MIA PaCa-2 cells [14]): G2-arrested effect
